Measurements: patent publication US20150099800A1, “NOVEL LIPASE INHIBITORS, REPORTER SUBSTRATES AND USES THEREOF” (Northeastern University, priority 2012, published 2015)
Where two headings read alike, the source gives them in different places. Values belong to the compound of their own block, whether it stands above or below them.

Key:
[1] = test system: cannabinoid receptors; details: cited from earlier work
[2] = test system: FAAH; details: cited from earlier work
[3] = target: T1, mDAGLα (Mus musculus, UniProt Q6WQJ1); assay: Radio-TLC assay with [14C]SAG substrate, mDAGLα; details: for potency for mDAGLα relative to analogs of (S)-α-amino acids: 10 nM to 10 μM
T1 sequence (Q6WQJ1 1-1044): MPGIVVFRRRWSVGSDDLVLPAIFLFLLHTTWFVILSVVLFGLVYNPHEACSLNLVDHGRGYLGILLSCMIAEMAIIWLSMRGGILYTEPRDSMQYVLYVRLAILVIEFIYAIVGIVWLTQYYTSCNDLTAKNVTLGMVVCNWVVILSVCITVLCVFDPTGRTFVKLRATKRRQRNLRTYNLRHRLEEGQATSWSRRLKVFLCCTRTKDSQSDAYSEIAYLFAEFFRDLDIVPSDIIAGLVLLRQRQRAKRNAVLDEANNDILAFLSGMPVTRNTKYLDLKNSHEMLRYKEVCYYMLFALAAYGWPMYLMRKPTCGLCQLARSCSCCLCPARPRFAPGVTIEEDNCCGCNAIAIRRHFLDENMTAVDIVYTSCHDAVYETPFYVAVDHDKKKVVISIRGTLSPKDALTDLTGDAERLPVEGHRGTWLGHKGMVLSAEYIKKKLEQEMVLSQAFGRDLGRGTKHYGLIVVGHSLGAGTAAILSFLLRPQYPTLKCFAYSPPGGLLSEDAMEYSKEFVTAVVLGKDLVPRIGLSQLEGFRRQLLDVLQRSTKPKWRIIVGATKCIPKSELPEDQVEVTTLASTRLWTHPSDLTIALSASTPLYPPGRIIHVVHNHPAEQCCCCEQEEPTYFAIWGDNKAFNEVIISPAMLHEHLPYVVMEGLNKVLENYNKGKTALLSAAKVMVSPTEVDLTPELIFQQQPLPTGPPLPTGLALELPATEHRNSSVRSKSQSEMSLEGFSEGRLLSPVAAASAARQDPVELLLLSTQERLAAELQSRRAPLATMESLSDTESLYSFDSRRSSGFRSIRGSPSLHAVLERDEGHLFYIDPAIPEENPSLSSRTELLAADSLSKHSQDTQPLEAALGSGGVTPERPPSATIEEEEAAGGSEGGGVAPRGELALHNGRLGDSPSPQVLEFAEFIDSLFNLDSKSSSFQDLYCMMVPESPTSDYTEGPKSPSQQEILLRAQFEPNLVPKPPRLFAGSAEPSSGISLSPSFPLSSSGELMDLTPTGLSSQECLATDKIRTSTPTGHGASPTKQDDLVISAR

[4] = target: T2, MAGL (Homo sapiens, UniProt Q99685); details: cited from earlier work
T2 sequence (Q99685 1-303): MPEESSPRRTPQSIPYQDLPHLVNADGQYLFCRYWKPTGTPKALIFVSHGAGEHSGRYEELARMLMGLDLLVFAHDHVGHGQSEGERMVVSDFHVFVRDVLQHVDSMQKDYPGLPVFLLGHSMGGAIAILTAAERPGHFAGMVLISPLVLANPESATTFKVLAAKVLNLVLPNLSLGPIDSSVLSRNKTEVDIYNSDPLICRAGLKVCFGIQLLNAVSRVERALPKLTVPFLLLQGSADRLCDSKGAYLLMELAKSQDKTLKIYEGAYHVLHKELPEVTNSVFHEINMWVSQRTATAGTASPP

[5] = test system: pancreatic and extrapancreatic fat necrosis; details: literature, cited from earlier work
[6] = target: T3, hDAGLα (Homo sapiens, UniProt Q9Y4D2); assay: biochemical; details: read-out: hDAGLα inhibition at 10 μM TLC (with Triton X-100) (%), 10 μM; 0.05% Triton X-100 present
T3 sequence (Q9Y4D2 1-1042): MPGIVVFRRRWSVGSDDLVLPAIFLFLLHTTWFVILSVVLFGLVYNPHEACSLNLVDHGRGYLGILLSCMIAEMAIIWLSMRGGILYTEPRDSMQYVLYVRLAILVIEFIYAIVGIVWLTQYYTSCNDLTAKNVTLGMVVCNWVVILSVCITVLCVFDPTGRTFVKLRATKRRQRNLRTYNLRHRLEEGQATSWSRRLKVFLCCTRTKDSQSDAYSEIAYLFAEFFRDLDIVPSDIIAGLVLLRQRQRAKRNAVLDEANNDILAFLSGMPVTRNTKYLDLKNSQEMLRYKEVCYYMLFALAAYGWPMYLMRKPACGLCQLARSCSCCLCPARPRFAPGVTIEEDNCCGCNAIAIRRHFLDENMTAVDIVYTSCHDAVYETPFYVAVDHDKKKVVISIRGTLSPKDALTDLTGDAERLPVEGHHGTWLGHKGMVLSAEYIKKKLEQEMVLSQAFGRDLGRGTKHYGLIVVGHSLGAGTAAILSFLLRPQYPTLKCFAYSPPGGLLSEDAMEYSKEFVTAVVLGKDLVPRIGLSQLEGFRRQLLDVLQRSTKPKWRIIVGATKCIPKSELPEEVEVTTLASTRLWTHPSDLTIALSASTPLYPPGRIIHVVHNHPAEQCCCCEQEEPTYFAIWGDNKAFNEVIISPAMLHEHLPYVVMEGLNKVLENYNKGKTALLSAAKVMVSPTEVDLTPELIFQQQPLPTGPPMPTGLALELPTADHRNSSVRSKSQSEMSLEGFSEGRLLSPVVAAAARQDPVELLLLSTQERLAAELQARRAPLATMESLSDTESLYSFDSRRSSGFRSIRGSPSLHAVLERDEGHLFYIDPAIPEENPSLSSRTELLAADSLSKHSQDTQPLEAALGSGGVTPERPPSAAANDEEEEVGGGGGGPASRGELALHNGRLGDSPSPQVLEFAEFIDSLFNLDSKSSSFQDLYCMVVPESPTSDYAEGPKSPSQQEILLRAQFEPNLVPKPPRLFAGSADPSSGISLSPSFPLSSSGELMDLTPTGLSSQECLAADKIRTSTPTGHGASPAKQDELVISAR

[7] = test system: DAGL; details: cited from earlier work
[8] = intraperitoneal (IP) injections

Compound: CCCCCCCCCCC[C@@H](C[C@@H]1OC(=O)[C@H]1CCCCCC)OC(=O)[C@H](CC(C)C)NC=O [Compound 3, tetrahydrolipstatin]
binding to the cannabinoid receptors, previous reports ([1]; literature): did not bind | inhibition of FAAH activity reported in the literature ([2]; literature): poor inhibitors | inhibition at 0.01 µM ([3]; read-out: mDAGLα inhibition at 10 nM (%)): 55% | inhibition at 0.1 µM ([3]; read-out: mDAGLα inhibition at 100 nM (%)): 72% | inhibition of MAGL activity reported in the literature ([4]; literature): poor inhibitors | effect on concentration of free fatty acid in the blood [5, 8]: no effect | lowering of lipase activity in the blood [5, 8]: small effect | prevention of pancreatic and extrapancreatic fat necrosis ([5]; rodents): not effective | inhibition at 10 µM [6]: 100%

mDAGLα inhibition at 10 nM (%) [3]: 33% | potency for mDAGLα relative to analogs of (S)-α-amino acids [3]: clearly less potent | mDAGLα inhibition at 100 nM (%) [3]: 29% | mDAGLα inhibition at 1000 nM (%) [3]: 69% | mDAGLα inhibition at 10000 nM (%) ([3]; 10000 nM): 85%
Compound: CCCCCCCCCCCC(CC1OC(=O)C1CCCCCC)OC(=O)C(NC=O)C(C)CC (stereo not drawn) [Compound 6]

mDAGLα inhibition at 10 nM (%) [3]: 19% | potency for mDAGLα relative to analogs of (S)-α-amino acids [3]: clearly less potent | mDAGLα inhibition at 100 nM (%) [3]: 51% | mDAGLα inhibition at 1000 nM (%) [3]: 75% | mDAGLα inhibition at 10000 nM (%) ([3]; 10000 nM): 90%
Compound: CCCCCCCCCCC[C@@H](C[C@@H]1OC(=O)[C@H]1CCCCCC)OC(=O)[C@H](NC=O)[C@@H](C)CC [Compound 7]

Compound: O=C(Oc1ccc([N+](=O)[O-])cc1)N1CCC(C(O)(c2ccc3c(c2)OCO3)c2ccc3c(c2)OCO3)CC1 [JZL184]
binding to the cannabinoid receptors, previous reports [1]: did not bind | effect on DAGL activity reported in the literature [7]: poor inhibitors | inhibition of FAAH activity reported in the literature [2]: poor inhibitors | mDAGLα inhibition at 10000 nM (%) [3]: 3% | inhibition of MAGL activity reported in the literature [4]: poor inhibitors
